The source of these data is article PMC6017236, “Activation Profile Analysis of CruCA4, an α-Carbonic Anhydrase Involved in Skeleton Formation of the Mediterranean Red Coral, Corallium rubrum” (Molecules : A Journal of Synthetic Chemistry and Natural …, 2017).

T1 sequence (A0A1B0Y987 entry or part of it): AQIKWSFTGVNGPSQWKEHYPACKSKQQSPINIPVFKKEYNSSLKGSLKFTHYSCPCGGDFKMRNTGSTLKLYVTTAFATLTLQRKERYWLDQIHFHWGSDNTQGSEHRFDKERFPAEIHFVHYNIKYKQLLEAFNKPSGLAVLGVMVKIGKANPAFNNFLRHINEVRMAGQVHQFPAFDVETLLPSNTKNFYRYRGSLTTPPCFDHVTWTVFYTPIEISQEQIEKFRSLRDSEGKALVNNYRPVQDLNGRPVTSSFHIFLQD

The test has as its target T1, CruCA4 (Corallium rubrum, UniProt A0A1B0Y987).
T1 construct: gene CA4
The test is described as follows: stopped-flow CO2 hydrase activation assay. Particulars: activation constant (activator); CO2 1.7-17 mM substrate, pH 7.5, 25 °C, 15 min pre-incubation. The format is biochemical. The source says:
stopped-flow CO2 hydrase activation assay on CruCA4
`N[C@H](Cc1c[nH]c2ccccc12)C(=O)O` [compound 8, D-Trp]: the “KA (μM) * / CruCA4 ^b” value was 8.35 µM.
The figure for `N[C@@H](Cc1cnc[nH]1)C(=O)O` [compound 1, L-His] is 36.9 µM; for `NCc1ccccn1` [compound 15, 2-Pyridyl-methylamine] it is 0.41 µM; for `Nc1ccc(C[C@H](N)C(=O)O)cc1` [compound 11, 4-H2N-L-Phe] it is 0.074 µM.
The figure for `N[C@H](Cc1ccccc1)C(=O)O` [compound 4, D-Phe] is 1.01 µM; for `NCCN1CCOCC1` [compound 18, 4-(2-Aminoethyl)-morpholine] it is 0.15 µM.
The result for `NCCN1CCNCC1` [compound 17, 1-(2-Aminoethyl)-piperazine] reads 0.004 µM; that for `N[C@@H](Cc1ccc(O)c(O)c1)C(=O)O` [compound 5, L-DOPA], 13.7 µM; that for `N[C@H](Cc1c[nH]cn1)C(=O)O` [compound 2, D-His], 0.098 µM.
Take `N[C@@H](Cc1c[nH]c2ccccc12)C(=O)O` [compound 7, L-Trp]: the “KA (μM) * / CruCA4 ^b” value turned out to be 9.48 µM.
The result for `N[C@H](Cc1ccc(O)c(O)c1)C(=O)O` [compound 6, D-DOPA] reads 0.93 µM.
